21 compounds from patent publication US20250326725A1, “PI4-Kinase Inhibitors and Methods of Using the Same” (The Board of Trustees of the Leland Stanford Junior …, priority 2019, published 2025) can be followed below.

Series [1] is described as follows: Cell toxicity (CC50) in EV71 assay. Conditions: EV71 CC50.
The nature of series [2]: Cell toxicity (CC50) in EV68 assay. Conditions: EV68 CC50.
In another series the test system is EV71. Description: EV71 antiviral assay (EC50). Format: cell-based, Enterovirus 71.
The next series has as its system HCV. The experiment in a line: Anti-HCV assay (EC50). The format is cell-based. Conditions: Hepatitis C virus, read-out: HCV EC50. How it is done: Anti-HCV assay: Anti-HCV assays are performed as described by Cho et al. “Identification of a class of HCV inhibitors directed against the nonstructural protein NS4B.” Sci. Transl. Med. 2011; 2(15):15ra6.
Series [3] can be described thus: Cell toxicity (CC50) in HRV assay. The following applies: human, HRV CC50.
In a further series the test system is EV68. Description: EV68 antiviral assay (EC50). The format is cell-based.
The next series has as its system HRV. The experiment in a line: Rhinovirus antiviral assay (EC50). Format: cell-based. Conditions: Human rhinovirus sp.

Several values for one entry are separate records, joined by “and”; a condition that tells them apart may be missing. Identical values can stand only once. Like-named read-outs stand apart in the source and are kept apart here.

For the compound `COc1ccc(-c2sc(NC(C)(C)c3ccncc3)nc2C)cc1S(=O)(=O)Nc1c(C)cccc1F` [Compound S-37], the CC50 in series [1] turned out to be 21.8 µM; in series [2] it was 3.88 µM; in series [3] it was 4.39 µM. Moreover, the EC50 in the series on EV71 (Enterovirus A, EV71) was 0.1 nM; with HCV it was 0.0001 µM; with EV68, 0.0005 µM.

As to `COc1ccc(-c2sc(NC(C)(C)c3ccccc3)nc2C)cc1S(=O)(=O)Nc1ccc(O)cc1` [Compound S-38], the results for the EC50 with HRV and with HCV were 0.0002 µM and 0.0006 µM, respectively.

For `COc1ccc(-c2sc(NC(C)(C)C3CCOCC3)nc2C)cc1S(=O)(=O)Nc1ccc(NC(C)=O)cc1` [Compound S-40], the CC50 stood at 78.1 µM in series [1], 42.7 µM in series [2] and 40.8 µM in series [3]. The EC50 in the series on EV71 (Enterovirus A, EV71) amounted to 0.0751 nM; with HCV, 0.0002 µM; in the series on EV68, 0.0012 µM.

Take `COc1ccc(-c2sc(NC(C)(C)c3ccccc3)nc2C)cc1S(=O)(=O)NC1CCNCC1` [Compound S-41]: the CC50 in series [1] was determined as 0.776 µM; in series [2], 2.09 µM; in series [3], 1.9 µM. Also, the EC50 in the series on EV71 (Enterovirus A, EV71) was found to be 0.9 nM; with HCV, 0.0099 µM; in the series with EV68 it was 0.0585 µM.

For `COc1ccc(-c2sc(NC(C)(C)c3ccccc3)nc2C)cc1S(=O)(=O)NC1CCN(C=O)CC1` [Compound S-43], the CC50 in series [1] came out at 17.5 µM; in series [2], 100 µM; in series [3], 100 µM. The EC50 in the series with EV71 (Enterovirus A, EV71) was 0.3 nM; in the series on HCV, 0.0021 µM; in the series with EV68, 0.0051 µM.

For the compound `COc1ccc(-c2sc(NC(C)(C)c3ccccc3)nc2C)cc1S(=O)(=O)Nc1ccncc1C(F)(F)F` [Compound S-44], the 50% cytotoxic concentration (CC50) in series [1] is 18.2 µM; in series [2], 33.5 µM; in series [3], 32.1 µM. Also, the EC50 with EV71 (Enterovirus A, EV71) turned out to be 3.5 nM; with HCV, 0.0306 µM; in the series with EV68 it was 1.99 µM.

For `COc1ccc(-c2oc(NC(C)(C)c3ccccc3)nc2C)cc1S(=O)(=O)Nc1ccncc1C` [Compound S-46], the CC50 in series [1] turned out to be 24.5 µM; in series [2], 44.5 µM; in series [3], 52.4 µM. Moreover, the EC50 in the series on EV71 (Enterovirus A, EV71) amounted to 0.4 nM; with HCV, 0.0009 µM; in the series on EV68, 0.0026 µM.

For the compound `COc1ccc(-c2oc(NC(C)(C)c3ccccn3)nc2C)cc1S(=O)(=O)Nc1ccncc1C` [Compound S-47], the cytotoxic concentration (CC50) amounted to 21.1 µM in series [1], 49.1 µM in series [2] and 49.5 µM in series [3]. For the same compound, the EC50 in the series on EV71 (Enterovirus A, EV71) was determined as 1.2 nM; with HCV, 0.0096 µM; with EV68, 0.0276 µM.

For the compound `COc1ccc(-c2oc(NC(C)(C)c3cccnc3)nc2C)cc1S(=O)(=O)Nc1ccncc1C` [Compound S-48], the CC50 in series [1], in series [2] and in series [3] was 100 µM each time. Further, the EC50 in the series with EV71 (Enterovirus A, EV71) was 4.5 nM; in the series with HCV it was 0.0745 µM; in the series with EV68, 0.217 µM.

For `COc1ccc(-c2sc(NC(C)(C)c3ccncc3)nc2C)cc1S(=O)(=O)Nc1ccncc1C` [Compound S-49], the figures for the CC50 in series [1], in series [2] and in series [3] were 29.5 µM, 71.4 µM and 66.3 µM, respectively. The EC50 with EV71 (Enterovirus A, EV71) amounted to 1 nM; in the series with HCV it was 0.01 µM; with EV68 it was 0.0507 µM.

Consider `COc1ccc(-c2sc(NC(C)(C)C3CCOCC3)nc2C)cc1S(=O)(=O)Nc1ccncc1C` [Compound S-50], for which the CC50 worked out at 38.1 µM in series [1], 37.6 µM in series [2] and 46.6 µM in series [3]. Further, the EC50 with EV71 (Enterovirus A, EV71) amounted to 1.2 nM; with HCV, 0.0076 µM; in the series on EV68 it was 0.0128 µM.

Regarding `COc1ccc(-c2sc(NC(C)(C)C3CCN(C(C)=O)CC3)nc2C)cc1S(=O)(=O)Nc1ccc(F)cc1Cl` [Compound S-51], the results for the CC50 in series [1], in series [2] and in series [3] were 62.1 µM, 37 µM and 52.7 µM, respectively. Also, the EC50 is 1.3 nM in the series with EV71 (Enterovirus A, EV71); 0.0015 µM in the series on HCV; 0.0115 µM in the series on EV68.

Turning to `COc1ccc(-c2sc(NC(C)(C)C3CCNCC3)nc2C)cc1S(=O)(=O)Nc1ccc(F)cc1Cl` [Compound S-52], the CC50 is 3.07 µM in series [1], 2.23 µM in series [2] and 2.32 µM in series [3]. In addition, the EC50 is 75000 nM with EV71 (Enterovirus A, EV71); 75 µM in the series with HCV; 100 µM in the series on EV68.

In the case of `COc1ccc(-c2sc(NC(C)(C)C3CCNCC3)nc2C)cc1S(=O)(=O)Nc1cccnc1C` [Compound S-53], the figures for the CC50 in series [1], in series [2] and in series [3] were 47.9 µM, 100 µM and 100 µM, respectively. For the same compound, the EC50 with EV71 (Enterovirus A, EV71) is 3560 nM; in the series with HCV, 12.4 µM; in the series with EV68 it was 12.3 µM.

`COc1ccc(-c2sc(NC34CC(C3)C4)nc2C)cc1S(=O)(=O)Nc1c(C)cccc1F` [Compound S-55]: the CC50 in series [1] was 100 µM; in series [2], 22.1 µM; in series [3], 19.4 µM. Besides, the EC50 was determined as 1.8 nM in the series on EV71 (Enterovirus A, EV71); 0.001 µM with HCV; 0.0068 µM in the series with EV68.

In the case of `COc1ccc(-c2sc(NC(C)(C)C3CCCCC3)nc2C)cc1S(=O)(=O)Nc1c(C)cccc1F` [Compound S-58], the CC50 in series [1], in series [2] and in series [3] was 100 µM each time. Besides, the concentration for a half-maximal effect (EC50) was 0.022 µM with HRV; 6 nM in the series on EV71; 6.8 nM with EV71 (Enterovirus A, EV71); 0.0225 µM with HCV; 0.0135 µM and 0.013 µM with EV68.

Take `COCC(C)(C)Nc1nc(C)c(-c2ccc(OC)c(S(=O)(=O)Nc3c(C)cccc3F)c2)s1` [Compound S-63]: the CC50 in series [1] turned out to be 83.8 µM; in series [2], 40.6 µM; in series [3], 27.7 µM. Besides, the EC50 in the series on EV71 (Enterovirus A, EV71) is 8.4 nM; in the series with HCV, 0.0015 µM; with EV68 it was 0.0034 µM.

As to `COc1ccc(-c2oc(NC(C)(C)c3ccccc3)nc2C)cc1S(=O)(=O)Nc1c(C)cccc1F` [Compound S-65], the CC50 in series [1] was 31.3 µM; in series [2], 1.7 µM; in series [3] it was 46.3 µM. The EC50 in the series with EV71 (Enterovirus A, EV71) was 2.7 nM; with HCV, 0.0018 µM; with EV68 it was 0.0024 µM.

`COc1ccc(-c2sc(N[C@@H](C)c3ccccc3)nc2C)cc1S(=O)(=O)Nc1c(C)cccc1F` [Compound S-74]: the CC50 turned out to be 95 µM in series [1], 100 µM in series [2] and 95 µM in series [3]. Moreover, the EC50 is 0.0009 µM in the series on HRV; 0.9 nM with EV71 (Enterovirus A, EV71); 0.001 µM in the series with EV68.

On to `COc1ccc(-c2sc(N[C@H](C)c3ccccc3)nc2C)cc1S(=O)(=O)Nc1c(C)cccc1F` [Compound S-75], for which the CC50 in series [1], in series [2] and in series [3] was 100 µM in each case. Besides, the EC50 was 0.022 µM with HRV; 6 nM with EV71 (Enterovirus A, EV71); 0.013 µM in the series with EV68.

`COc1ccc(-c2sc(NCC3CCOCC3)nc2C)cc1S(=O)(=O)Nc1ccc(F)cc1Cl` [Compound S-77]: the EC50 in the series on HRV is 0.826 µM. This compound also displayed a CC50 in series [3] of 66 µM.

By CC50 is commonly meant the concentration giving 50% cytotoxicity. A high value points to better tolerance by the cells. In general, EC50 refers to the concentration at which the effect is half-maximal.
